Molecular target: T1, MFN2 (FRET-MFN2) (Homo sapiens, UniProt O95140)
T1 sequence (O95140 1-757): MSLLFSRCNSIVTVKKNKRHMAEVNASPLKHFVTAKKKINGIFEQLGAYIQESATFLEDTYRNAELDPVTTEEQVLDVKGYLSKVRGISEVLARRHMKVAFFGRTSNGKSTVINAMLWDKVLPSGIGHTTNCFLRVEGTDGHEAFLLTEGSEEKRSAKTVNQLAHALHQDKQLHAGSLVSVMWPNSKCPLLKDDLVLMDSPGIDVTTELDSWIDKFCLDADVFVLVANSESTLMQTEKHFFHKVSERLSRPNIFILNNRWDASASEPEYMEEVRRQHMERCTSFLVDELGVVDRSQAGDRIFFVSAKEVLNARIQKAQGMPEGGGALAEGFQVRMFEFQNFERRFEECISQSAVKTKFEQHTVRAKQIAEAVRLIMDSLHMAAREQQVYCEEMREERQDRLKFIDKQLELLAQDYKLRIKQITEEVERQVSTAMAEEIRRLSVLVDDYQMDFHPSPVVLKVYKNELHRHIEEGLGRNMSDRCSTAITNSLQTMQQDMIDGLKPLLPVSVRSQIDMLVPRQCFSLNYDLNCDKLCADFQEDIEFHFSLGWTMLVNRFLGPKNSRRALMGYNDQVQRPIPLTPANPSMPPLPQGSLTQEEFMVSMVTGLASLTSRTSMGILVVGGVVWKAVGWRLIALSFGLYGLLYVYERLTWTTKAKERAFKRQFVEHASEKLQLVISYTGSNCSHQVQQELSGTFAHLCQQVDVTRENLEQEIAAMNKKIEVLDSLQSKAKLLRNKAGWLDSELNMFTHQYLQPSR
Experiment: Cerulean/Venus FRET of MFN2 conformation, isolated mitochondria
Type: biochemical
Conditions: 1 uM compound, 4 h, room temperature, pH 7.4; allosteric

`O=C(CCCCCc1ccccc1)N[C@H]1CC[C@H](O)CC1` [trans-MiM111, N-(trans-4-Hydroxycyclohexyl)-6-phenylhexanamide] was tested, and the FRET was “trans-MiM111 and CPR1-B promoted a relaxed WT MFN2 conformation”.

Reference: publication PMC9553116 (The Journal of Pharmacology and Experimental Therapeutics, 2022)
